Assay results from patent EP0509470A2, “Therapeutical compositions having anti-HIV activity consisting of 2',3'-didesoxyadenosine and substances inhibiting adenosine deaminase” (REPLA CHEMICAL LTD., priority 1991, dated 1992).
Where two headings read alike, the source gives them in different places.

Legend:
Type in all cases: cell-based
[1] = Cytotoxicity evaluation (cell number in Coulter after 96 hours); conditions: human
Method: (§1) The cellular lines utilized in this study were: H9, T lymphocytes, CD4+, permissive for the HIV replication but partially resistant to its cytopathic effect; • H9/IIIB, H9 lymphocytes chronically infected by HTLV/IIIB virus; • MT4 and C8166, T lymphocytes lines, CD4+ permissive for HIV replication. In C8166 the virus induces a cytopathic effect which results in the formation of syncytia easily visible at the optical microscope.
(§2) All the lymphoid lines were cultured in RPMI 1640 containing 10 % of non decomplemented fetal calf serum (FCS), penicillin 100U/mL and streptomycin 100 µg/mL and incubated at 37 °C in 5% CO₂.
(§3) For the cytotoxicity evaluation, the cells were resuspended in a culture medium at a density of 1 x 10⁵/mL, were incubated in the absence or in the presence of various concentration of the compounds to be studied and their number was determined in Coulter after 96 hours of incubation at 37 °C.

[2] = test system: HIV-1; assay: Inhibition of infecting HIV production in MT4 cells (end point titration); conditions: for EC90: read-out: ED90 (the source's name); for enhancement of the anti-HIV-1 activity of ddAdo (10 µM): compound used at its MNTD together with ddAdo 10 µM, Fig. 1
Method: as §1, §2
(§4) HIV virus was obtained by H9/IIIB cells surnatant taken at the end of their exponential growth.
(§5) The titre of several stock preparations was comprised between 2 and 5 x 10⁵ Cell Culture Infection Dose 50 (CCID50)/mL.
(§6) For the evaluation of the anti-HIV activity the inhibition of infecting HIV production was determined as follows.
(§7) C8166 or MT4 cells sown at a density of 1 x 10⁶ cells/ml, were infected with a multiplicity of infection (m.o.i.) comprised between 0.05 and 0.02 CCID50/cell. After two hours of incubation at 37 °C and subsequent removal of the inoculum, the cells were washed three times and resuspended at a density of 1 x 10⁵ cells/ml. in the absence or in the presence of the compounds to be investigated.
(§8) After 4 days of incubation at 37 °C the presence of syncytia was evaluated at the optical microscope and the quantity of infecting HIV present in the surnatant of the cultures was determined by end point titration.
(§9) HIV titration was carried out in C8166 cells sown at a density of 1 x 10⁵ cells/mL/well, by the limit dilution method (dilution ratio 1:2, every dilution being sown in quadruplicate).
(§10) After four days of incubation, the syncytia presence was evaluated at the microscope and the viral titre was calculated by the Reed and Muench method.

[3] = test system: HIV-1; assay: Inhibition of infecting HIV production in C8166 cells (end point titration); conditions: for EC90: read-out: ED90 (the source's name)
Method: as §1, §2, §4, §5, §6, §7, §8, §9, §10

[4] = test system: C8166 cells; assay: Cytotoxicity evaluation (cell number in Coulter after 96 hours); conditions: C8166 cells; concentrations up to 500 µM
Method: as §1, §2, §3

[5] = test system: MT4 cells; assay: as above
Method: as §1, §2, §3

[6] = MT4 cells, compound alone, Table 2
[7] = C8166 cells, compound alone, Table 2
[8] = MT4 cells, concentrations up to 500 µM
[9] = ddAdo alone (EHNA absent), C8166, Table 3
[10] = ddAdo alone (Coformycin absent), MT4, Table 4
[11] = ddAdo alone (desoxycoformycin absent), MT4, Table 5
[12] = ddAdo with Coformycin 0.02 (unit not given), MT4
[13] = ddAdo with Coformycin 0.06 (unit not given), MT4
[14] = ddAdo with Coformycin 0.2 (unit not given), MT4
[15] = ddAdo with Coformycin 0.5 (unit not given), MT4
[16] = ddAdo with Coformycin 1.6 (unit not given), MT4
[17] = ddAdo with Coformycin 5 (unit not given), MT4
[18] = ddAdo with Coformycin 15 (unit not given), MT4
[19] = ddAdo with Coformycin 45 (unit not given), MT4
[20] = ddAdo with desoxycoformycin 0.05 (unit not given), MT4
[21] = ddAdo with desoxycoformycin 0.5 (unit not given), MT4
[22] = ddAdo with desoxycoformycin 5 (unit not given), MT4
[23] = ddAdo with desoxycoformycin 50 (unit not given), MT4

CCCCCC[C@H]([C@H](C)O)n1cnc2c(N)cccc21 (relative stereo) [1,3-dideaza-EHNA]
CC50 at 96 h ([1]; mt4 cells): 15 µM
MNTC at 96 h ([1]; mt4 cells, MNTD): 5 µM
EC90 [2, 6]: > 5 µM

CCCCCC[C@H]([C@H](C)O)n1cnc2c(N)ccnc21 (relative stereo) [1-deaza-EHNA]
CC50 at 96 h ([1]; mt4 cells): 75 µM
MNTC at 96 h ([1]; mt4 cells, MNTD): 20 µM
EC90 [2, 6]: 20 µM

CCCCCC[C@H]([C@H](C)O)n1cnc2c(N)nccc21 (relative stereo) [3-deaza-EHNA]
CC50 at 96 h ([1]; mt4 cells): 30 µM
MNTC at 96 h ([1]; mt4 cells, MNTD): 10 µM
EC90 [2, 6]: > 10 µM
enhancement of the anti-HIV-1 activity of ddAdo (10 µM) ([2]; MT4 cells): highest enhancing effect

CCCCCC[C@H]([C@H](C)O)n1ccc2c(N)ncnc21 (relative stereo) [7-deaza-EHNA]
CC50 at 96 h ([1]; mt4 cells): 50 µM
MNTC at 96 h ([1]; mt4 cells, MNTD): 5 µM
EC90 [2, 6]: > 5 µM

CCCCCC[C@H]([C@H](C)O)n1cnc2c(N)ncnc21 (relative stereo) [EHNA, 9-(erythro-2-hydroxy-3-nonyl) adenine]
CC50 at 96 h ([1]; c8166 cells): 25 µM
MNTC at 96 h ([1]; c8166 cells, MNTD): 15 µM
CC50 at 96 h ([1]; mt4 cells): 35 µM
MNTC at 96 h ([1]; mt4 cells, MNTD): 10 µM
EC90 [3, 7]: > 15 µM
lowest concentration enhancing ddAdo anti-HIV activity, relative to its MNTD ([3]; EHNA with ddAdo, C8166): 250 times lower
EC90 [2, 6]: > 10 µM
enhancement of the anti-HIV-1 activity of ddAdo (10 µM) ([2]; MT4 cells): highest enhancing effect

OC[C@H]1O[C@@H](n2cnc3c2N=CNC[C@H]3O)[C@H](O)[C@@H]1O [CF, coformycin]
CC50 at 96 h ([1]; c8166 cells): > 250 µM
MNTC at 96 h ([1]; c8166 cells, MNTD): > 250 µM
CC50 at 96 h ([1]; mt4 cells): > 250 µM
MNTC at 96 h ([1]; mt4 cells, MNTD): > 250 µM
MCC at 96 h ([1]; cell line not specified, read-out: cytotoxic concentration): 250 µM
EC90 [3, 7]: > 250 µM
lowest concentration enhancing ddAdo anti-HIV activity, relative to its MNTD ([2]; CF with ddAdo, MT4): more than 12500 times lower
EC90 [2, 6]: > 250 µM

OC[C@H]1O[C@@H](n2cnc3c2NC=NC[C@H]3O)C[C@@H]1O [dCF, desoxycoformycin]
toxicity [4]: non toxic
toxicity [5, 8]: non toxic
anti-HIV-1 activity ([3]; C8166 cells, concentrations up to 500 µM): without any anti-HIV-1 activity
anti-HIV-1 activity [2, 8]: without any anti-HIV-1 activity
lowest concentration enhancing ddAdo anti-HIV activity, relative to its MNTD ([2]; dCF with ddAdo, MT4): more than 10,000 times lower

Nc1ncnc2c1ncn2[C@H]1CC[C@@H](CO)O1 [ddAdo, 2',3'-didesoxyadenosine]
CC50 at 96 h ([1]; c8166 cells): > 1000 µM
MNTC at 96 h ([1]; c8166 cells, MNTD): > 1000 µM
MNTC at 96 h ([1]; c8166 cells, maxima non cytotoxic doses (MNTD)): ≥ 1000 µM
CC50 at 96 h ([1]; mt4 cells): > 1000 µM
MNTC at 96 h ([1]; mt4 cells, MNTD): > 1000 µM
MNTC at 96 h ([1]; mt4 cells, maxima non cytotoxic doses (MNTD)): ≥ 1000 µM
MNTC at 96 h ([1]; mt4 cells, in association with 15 µM of EHNA, Fig. 2, read-out: MNTD of ddAdo): 60 µM
MNTC at 96 h ([1]; mt4 cells, in association with 125 µM of CF, Fig. 3, read-out: MNTD of ddAdo): 60 µM
MNTC ([5]; human, mt4 cells, 96 h): 1 mM
EC90 [3, 7]: 25 µM
ED99 [3, 9]: 39.0 µM
ED99.9 [3, 9]: 61.0 µM
ED99 ([3]; ddAdo with EHNA 0.06 µM, C8166): 30.5 µM
ED99.9 ([3]; ddAdo with EHNA 0.06 µM, C8166): 52.0 µM
EC90 ([3]; ddAdo with EHNA 0.06 µM, C8166): 10.5 µM
ED99 ([3]; ddAdo with EHNA 0.2 µM, C8166): 18.0 µM
ED99.9 ([3]; ddAdo with EHNA 0.2 µM, C8166): 42.5 µM
EC90 ([3]; ddAdo with EHNA 0.2 µM, C8166): 7.5 µM
ED99 ([3]; ddAdo with EHNA 0.5 µM, C8166): 14.5 µM
ED99.9 ([3]; ddAdo with EHNA 0.5 µM, C8166): 34.5 µM
EC90 ([3]; ddAdo with EHNA 0.5 µM, C8166): 6.5 µM
ED99 ([3]; ddAdo with EHNA 1.6 µM, C8166): 11.5 µM
ED99.9 ([3]; ddAdo with EHNA 1.6 µM, C8166): 25.5 µM
EC90 ([3]; ddAdo with EHNA 1.6 µM, C8166): 5 µM
ED99 ([3]; ddAdo with EHNA 5 µM, C8166): 10.0 µM
ED99.9 ([3]; ddAdo with EHNA 5 µM, C8166): 23.5 µM
EC90 ([3]; ddAdo with EHNA 5 µM, C8166): 3.5 µM
ED99 ([3]; ddAdo with EHNA 15 µM, C8166): 7.5 µM
ED99.9 ([3]; ddAdo with EHNA 15 µM, C8166): 17.5 µM
EC90 ([3]; ddAdo with EHNA 15 µM, C8166): 3 µM
EC90 [2, 6]: 10 µM
ED99 [2, 10]: 19.0 µM
ED99.9 [2, 10]: 32.0 µM
EC90 [2, 10]: 11 µM
ED99 [2, 11]: 14.3 µM
ED99.9 [2, 11]: 23.8 µM
EC90 [2, 11]: 4.8 µM
EC90 ([2]; ddAdo with Coformycin 0.02 (unit inferred), MT4): 4 µM
ED99 [2, 12]: 7.6 µM
ED99.9 [2, 12]: 13.7 µM
ED99 [2, 13]: 7.1 µM
ED99.9 [2, 13]: 12.5 µM
ED99 [2, 14]: 5.0 µM
ED99.9 [2, 14]: 8.0 µM
EC90 ([2]; ddAdo with Coformycin 0.5 (unit inferred), MT4): 3.6 µM
ED99 [2, 15]: 5.0 µM
ED99.9 [2, 15]: 8.0 µM
EC90 ([2]; ddAdo with Coformycin 1.6 (unit inferred), MT4): 2.5 µM
ED99 [2, 16]: 4.5 µM
ED99.9 [2, 16]: 7.5 µM
EC90 ([2]; ddAdo with Coformycin 5 (unit inferred), MT4): 2 µM
ED99 [2, 17]: 4.0 µM
ED99.9 [2, 17]: 7.5 µM
EC90 ([2]; ddAdo with Coformycin 15 (unit inferred), MT4): 1.5 µM
ED99 [2, 18]: 3.5 µM
ED99.9 [2, 18]: 7.5 µM
EC90 ([2]; ddAdo with Coformycin 45 (unit inferred), MT4): 1 µM
ED99 [2, 19]: 2.5 µM
ED99.9 [2, 19]: 7.0 µM
ED99 [2, 20]: 8.0 µM
ED99.9 [2, 20]: 14.4 µM
EC90 ([2]; ddAdo with desoxycoformycin 0.5 (unit inferred), MT4): 1.3 µM
ED99 [2, 21]: 7.8 µM
ED99.9 [2, 21]: 14.2 µM
EC90 ([2]; ddAdo with desoxycoformycin 5 (unit inferred), MT4): 1.1 µM
ED99 [2, 22]: 6.2 µM
ED99.9 [2, 22]: 11.2 µM
EC90 ([2]; ddAdo with desoxycoformycin 50 (unit inferred), MT4): 0.9 µM
ED99 [2, 23]: 3.8 µM
ED99.9 [2, 23]: 6.7 µM
